Laboratory results: US8658801B2, “Pesticides containing a bicyclic bisamide structure” (Syngenta Crop Protection, LLC, priority 2006, dated 2014)

How the values were obtained:
[1] = test system: Plutella xylostella (Diamond Back Moth); experiment: Example B3: Plutella xylostella, larvicide, feeding/residual contact, preventive (artificial diet MTP); type: in vivo; details: 120 h, 5 days incubation, L2 larvae
Method: Plutella xylostella (Diamond Back Moth)
(§1) (Larvicide, Feeding/Residual Contact Activity, Preventive)
24-well microtiter plate (MTP) with artificial diet is treated with test solutions by pipetting. After drying, the MTP's are infested with larvae (L2)(10-15 per well). After an incubation period of 5 days, samples are checked for larval mortality, antifeedant and growth regulation. In this test, compounds listed in Table P above show good activity. In particular compounds P.1, P.2, P.3, P.4, P.5, P.6, P.7, P.9, P.10, P.11, P.12, P.13, P.15, P.16, P.17, P.18, P.19, P.20, P.21, P.22, P.23, P.25, P.26, P.27, P.28, P.29, P.30, P.31, P.32, P.33, P.34, P.35, P.36, P.37, P.38, P.39, P.40, P.41, P.42, P.43, P.44, P.46, P.47, P.48, P.49, P.50, P.51, P.52, P.53, P.54, P.55, P.56, P.57, P.58, P.59, P.60, P.61, P.63, P.64, P.67, P.68, P.69 P.70, P.72, P.74, P.77, P78 and P.79 show an activity of over 80% at a concentration of 400 ppm.

[2] = test system: Diabrotica balteata (Corn Root Worm); experiment: Example B4: Diabrotica balteata, larvicide, feeding/residual contact, preventive; type: in vivo; details: 120 h, 5 days incubation, L2 larvae
Method: Diabrotica balteata (Corn Root Worm)
as §1
After drying, the MTP's are infested with larvae (L2)(6-10 per well). After an incubation period of 5 days, samples are checked for larval mortality, antifeedant and growth regulation. In this test, compounds listed in Table P above show good activity. In particular compounds P.1, P.2, P.5, P.6, P.10, P.11, P.12, P.13, P.15, P.16, P.17, P.18, P.19, P.24, P.25, P.27, P.28, P.29, P.30, P.31, P.33, P.34, P.35, P.37, P.38, P.39, P.42, P.43, P.44, P.45, P.46, P.47, P.48, P.49, P.50, P.52, P.53, P.65, P.67, P.68, P.69, P.70, P.71, P.72, P.75, P.78, and P.79 show an activity of over 80% at a concentration of 400 ppm.

[3] = test system: Spodoptera littoralis (Egyptian Cotton Leafworm); experiment: Example B1: activity against Spodoptera littoralis, larvicide, feeding/residual contact, preventive (cotton leaf discs); type: in vivo; details: foliar, 72 h, 3 days after treatment, L1 larvae
Description: Activity Against Spodoptera littoralis (Egyptian Cotton Leafworm)
as §1
The samples are checked for mortality, repellent effect, feeding behaviour, and growth regulation 3 days after treatment. In this test, compounds listed in Table P above show good activity. In particular compounds P.1, P.2, P.3, P.4, P.5, P.6, P.7, P.9, P.10, P.11, P.12, P.13, P.15, P.16, P.17, P.18, P.19, P.20, P.21, P.22, P.23, P.24, P.25, P.26, P.27, P.28, P.29, P.30, P.31, P.32, P.33, P.34, P.35, P.36, P.37, P.38, P.39, P.40, P.41, P.42, P.43, P.44, P.45, P.46, P.47, P.48, P.49, P.50, P.51, P.52, P.53, P.54, P.55, P.56, P.57, P.58, P.59, P.60, P.61, P.63, P.64, P.67, P.68 and P.70 show an activity of over 80% at a concentration of 400 ppm.

[4] = test system: Heliothis virescens (Tobacco Budworm); experiment: Example B2: activity against Heliothis virescens, ovo-larvicide, feeding/contact, curative; type: in vivo; details: 96 h, 4 days incubation, eggs 0-24 h old
Method: Activity Against Heliothis virescens (Tobacco Budworm)
(Ovo-Larvicide, Feeding/Contact Activity, Curative)
Eggs (0-24 h old) are placed in 24-well microtiter plate on artificial diet and treated with test solutions by pipetting. After an incubation period of 4 days, samples are checked for egg mortality, larval mortality, and growth regulation.

[5] = test system: Myzus persicae (Green Peach Aphid); experiment: Example B5: activity against Myzus persicae, mixed population, feeding/residual contact, preventive (sunflower leaf discs); details: foliar, 144 h, read-out: activity
[6] = test system: Thrips tabaci (Onion Thrips); experiment: Example B7: activity against Thrips tabaci, mixed population, feeding/residual contact, preventive; details: 144 h, read-out: activity

Measured: pest or weed control at 400 ppm

CC(C)NC(=O)c1c(NC(=O)c2cc(C(F)(F)F)nn2-c2ncccc2Cl)ccc2cc[nH]c12 [P.1]
> 80%: [1] | [2] | [3] | [4]

O=C(NCC1CC1)c1c(NC(=O)c2cc(C(F)(F)F)nn2-c2ncccc2Cl)ccc2cc[nH]c12 [P.2]
not listed: [6]
> 80%: all other assays above

CC(C)NC(=O)c1c(NC(=O)c2cc(C(F)(F)F)nn2-c2ncccc2Cl)ccc2cn[nH]c12 [P.3]
> 80%: [1] | [6] | [3] | [4]

O=C(NCC1CC1)c1c(NC(=O)c2cc(C(F)(F)F)nn2-c2ncccc2Cl)ccc2cn[nH]c12 [P.4]
> 80%: [1] | [3] | [4]

O=C(NC1(C2CC2)CC1)c1c(NC(=O)c2cc(C(F)(F)F)nn2-c2ncccc2Cl)ccc2cn[nH]c12 [P.5]
> 80%: [1] | [2] | [3] | [4]

CNC(=O)c1c(NC(=O)c2cc(C(F)(F)F)nn2-c2ncccc2Cl)ccc2cn[nH]c12 [P.6]
> 80%: [1] | [2] | [3] | [4]

CSCC(C)(C)NC(=O)c1c(NC(=O)c2cc(C(F)(F)F)nn2-c2ncccc2Cl)ccc2cn[nH]c12 [P.7]
> 80%: [1] | [3] | [4]

CC(C)(CS(C)(=O)=O)NC(=O)c1c(NC(=O)c2cc(C(F)(F)F)nn2-c2ncccc2Cl)ccc2cn[nH]c12 [P.9]
> 80%: [1] | [5] | [3] | [4]

CC(C)NC(=O)c1c(NC(=O)c2cc(C(F)(F)F)nn2-c2ncccc2Cl)c(Br)cc2cn[nH]c12 [P.16]
> 80%: all assays above

Cc1cc2c(ccc(C)[n+]2[O-])c(C(=O)NC(C)C)c1NC(=O)c1cc(C(F)(F)F)nn1-c1ncccc1Cl [P.21]
> 80%: [1] | [3] | [4]

CCNC(=O)c1c(NC(=O)c2cc(C(F)(F)F)nn2-c2ncccc2Cl)c(C)cc2nc(C)ccc12 [P.23]
> 80%: [1] | [3] | [4]

CCCc1nc2cc(C)c(NC(=O)c3cc(C(F)(F)F)nn3-c3ncccc3Cl)c(C(=O)NC(C)C)c2cc1CC [P.24]
> 80%: [2] | [3]

N#Cc1cc2cn[nH]c2c(C(=O)NC2(C3CC3)CC2)c1NC(=O)c1cc(C(F)(F)F)nn1-c1ncccc1Cl [P.26]
> 80%: [1] | [6] | [3] | [4]

COc1cc(C(=O)Nc2c(Cl)cc3c(Br)n[nH]c3c2C(=O)NC(C)C)n(-c2ncccc2Cl)n1 [P.63, 3-bromo-5-chloro-6-{[2-(3-chloro-pyridin-2-yl)-5-methoxy-2H-pyrazole-3-carbonyl]-amino}-1H-indazole-7-carboxylic acid isopropylamide]
> 80%: [1] | [6] | [3] | [4]

COc1cc(C(=O)Nc2c(Cl)cc3c(Br)n[nH]c3c2C(=O)NC2(C3CC3)CC2)n(-c2ncccc2Cl)n1 [P.64, 3-bromo-5-chloro-6-{[2-(3-chloro-pyridin-2-yl)-5-methoxy-2H-pyrazole-3-carbonyl]-amino}-1H-indazole-7-carboxylic acid bicyclopropyl-1-ylamide]
> 80%: [1] | [6] | [3] | [4]

CC(C)NC(=O)c1c(NC(=O)c2cc(C(F)(F)F)nn2-c2ncccc2Cl)c(Cl)cc2c(Br)n[nH]c12 [P.67]
not listed: [5]
> 80%: all other assays above

O=C(NC1(C2CC2)CC1)c1c(NC(=O)c2cc(C(F)(F)F)nn2-c2ncccc2Cl)c(Cl)cc2c(Br)n[nH]c12 [P.68]
not listed: [5]
> 80%: all other assays above

Cc1n[nH]c2c(C(=O)NC(C)C)c(NC(=O)c3cc(C(F)(F)F)nn3-c3ncccc3Cl)c(Cl)cc12 [P.69, 5-chloro-6-{[2-(3-chloro-pyridin-2-yl)-5-trifluoromethyl-2H-pyrazole-3-carbonyl]-amino}-3-methyl-1H-indazole-7-carboxylic acid isopropylamide]
> 80%: [1] | [2] | [4]

Cc1n[nH]c2c(C(=O)NC3(C4CC4)CC3)c(NC(=O)c3cc(C(F)(F)F)nn3-c3ncccc3Cl)c(Cl)cc12 [P.72, 5-chloro-6-{[2-(3-chloro-pyridin-2-yl)-5-trifluoromethyl-2H-pyrazole-3-carbonyl]-amino}-3-methyl-1H-indazole-7-carboxylic acid bicyclopropyl-1-ylamide]
> 80%: [1] | [2] | [4]

CNC(=O)c1c(NC(=O)c2cc(C(F)(F)F)nn2-c2ncccc2Cl)ccc2cccnc12 [P.74, 7-{[2-(3-chloro-pyridin-2-yl)-5-trifluoromethyl-2H-pyrazole-3-carbonyl]-amino}-quinoline-8-carboxylic acid methylamide]
> 80%: [1] | [4]

CC(C)NC(=O)c1c(NC(=O)c2cc(C(F)(F)F)nn2-c2ncccc2Cl)ccc2ncccc12 [P.75, 6-{[2-(3-chloro-pyridin-2-yl)-5-trifluoromethyl-2H-pyrazole-3-carbonyl]-amino}-quinoline-5-carboxylic acid isopropylamide]
> 80%: [2]

CNC(=O)c1c(NC(=O)c2cc(C(F)(F)F)nn2-c2ncccc2Cl)c(C)cc2ncccc12 [P.77, 6-{[2-(3-chloro-pyridin-2-yl)-5-trifluoromethyl-2H-pyrazole-3-carbonyl]-amino}-7-methyl-quinoline-5-carboxylic acid methylamide]
> 80%: [1] | [4]

C#Cc1cc2cn[nH]c2c(C(=O)NC2(C3CC3)CC2)c1NC(=O)c1cc(C(F)(F)F)nn1-c1ncccc1Cl [P.79, 6-{[2-(3-chloro-pyridin-2-yl)-5-trifluoromethyl-2H-pyrazole-3-carbonyl]-amino}-5-ethynyl-1H-indazole-7-carboxylic acid bicyclopropyl-1-ylamide]
> 80%: [1] | [2]
